We go through 17 molecules from patent US8088802B2, “N-phenylarylsulfonamide compound, pharmaceutical composition comprising the compound as active ingredient, synthetic intermediate for the compound and process for its preparation” (Ono Pharmaceutical Co., Ltd., priority 2001, dated 2012).

For data set [1], the target named is T1, mouse EP1 (Mus musculus, UniProt P35375).
T1 sequence (P35375 1-405): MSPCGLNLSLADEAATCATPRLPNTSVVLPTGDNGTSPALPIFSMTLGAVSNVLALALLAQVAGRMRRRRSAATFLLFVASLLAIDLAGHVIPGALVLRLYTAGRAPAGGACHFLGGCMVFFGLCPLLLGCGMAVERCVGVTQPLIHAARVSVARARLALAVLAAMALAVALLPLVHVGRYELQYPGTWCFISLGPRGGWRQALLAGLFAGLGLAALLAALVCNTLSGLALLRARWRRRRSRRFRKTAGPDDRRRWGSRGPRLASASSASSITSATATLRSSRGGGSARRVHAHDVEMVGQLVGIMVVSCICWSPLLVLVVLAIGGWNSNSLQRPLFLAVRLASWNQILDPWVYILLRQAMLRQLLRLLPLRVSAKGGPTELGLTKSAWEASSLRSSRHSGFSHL
The data set can be described thus: Receptor antagonism using cells expressing EP1 in the presence of BSA (intracellular calcium). The note with it: inhibition of PGE2 (100 nM)-induced increase of intracellular calcium; assay buffer with 1% (w/v) BSA. Also noted: expressed in transfected cells. The data set is classed as cell-based. Here is the method:
(ii) Experimental Measurement of the Activity of Receptor Antagonism Using Cells Expressing Prostanoid Receptor Subtype EP1 in the Presence of BSA (Bovine Serum Albumin)
The cells expressing mouse EP1 receptor were seeded at 1×10^4 cells/well in 96 well plates and cultured for 2 days with 10% FBS (fetal bovine serum)/minimum essential medium Eagle alpha modification (αMEM) in the incubator (37° C., 5% CO2). The cells in each well were rinsed with phosphate buffer (PBS(−)), and load buffer was added. After incubation for 1 hour, the load buffer was discarded. After the addition of the assay buffer to each well, the cells were incubated in a dark place at room temperature for 1 hour. After the addition of a compound of the present invention (10 μl) and PGE2 (10 μl) which were prepared with assay buffer, intracellular calcium concentration was measured with Fluorescence drug screening system (FDSS-4000, Hamamatsu Photonics). A pair of fluorescence intensities emitted 500 nm by an excitation wavelength of each 340 nm and 380 nm was measured.
The EP1 antagonist activity was estimated as percent inhibition of the increase of intracellular calcium concentration induced by PGE2 (100 nM).
Load buffer: 10% FBS/αMEM containing 5 μM of Fura 2/AM, 20 μM of indomethacin, 2.5 mM of probenecid
Assay buffer: Hank's balanced salt solution (HBSS) containing 1% (w/v) BSA, 2 μM of indomethacin, 2.5 mM of probenecid and 10 mM of HEPES-NaOH
Background: Calcium flux is commonly read through the fluorescence of an indicator in the cells.

Data set [2] addresses T1, mouse EP1. The data set can be described thus: Binding assay using expression cell of prostanoid receptor subtype (3H-PGE2 competition, membrane fraction). Also noted: expressed in transfected cells; host or cells: CHO cells, membrane fraction. The note with it: competition of 3H-PGE2 (2.5 nM) binding, CHO cell membrane fraction. How it is done: (i) Binding Assay Using Expression Cell of Prostanoid Receptor Subtype
The preparation of membrane fraction was carried out according to the method of Sugimoto et al. (J. Biol. Chem., 267, 6463-6466 (1992)), using expression CHO cell of prostanoid receptor subtype (mouse EP1, EP2, EP3α or EP4).
The standard assay mixture containing membrane fraction (0.5 mg/ml) and ^3H-PGE2 in a final volume of 200 μl was incubated for 1 hour at room temperature. The reaction was terminated by addition of ice-cold buffer (3 ml). The mixture was rapidly filtered through a glass filter (GF/B). The radioactivity associated with the filter was measured by liquid scintillation counting.
Kd and Bmax values were determined from Scatchard plots (Ann. N.Y. Acad. Sci., 51, 660 (1949)). Non-specific binding was calculated as the binding in the presence of an excess (2.5 μM) of unlabeled PGE2. In the experiment for competition of specific ^3H-PGE2 binding by the compound of the present invention, ^3H-PGE2 (2.5 nM) and the compound of the present invention were added. The following buffer was used in all reaction.
Buffer: potassium phosphate (pH 6.0, 10 mM), EDTA (1 mM), MgCl2 (10 mM) and NaCl (0.1 M).
The dissociation constant Ki (μM) of each compound was calculated by the following equation. Ki=IC50/(1+([C]/Kd))
wherein [C] is concentration of ^3H-PGE2 used in the reaction

In data set [3] the test system is EP1 receptor. Put plainly: Inhibition of sulprostone-induced increase of intravesical pressure of bladder in rats. In kind it is in vivo, rat. The note with it: female Wistar rats, 1 mg/kg intraduodenal, 40 minutes after administration. An excerpt:
(iii) Experiment to Assess the Inhibition of Sulprostone-Induced Increase of Intravesical Pressure of Bladder in Rats.
Female rats (Wistar) were anesthetized by urethane and their both ureters were ligated and cut off at the kidney side. The urinary bladder was incised its top and catheter was inserted. The other end of catheter was connected to the pressure transducer and the infusion pump. Repeated micturition reflex, which was induced by the continuous infusion of citrate buffer (pH 3.5) into the bladder, was recorded. The increase of micturition pressure was elicited by the subcutaneous injection of diclofenac (5 mg/kg) and sulprostone (300 μg/kg). Since such an increasing effect was not observed by the treatment of EP3 agonist, it was considered that this increase was caused by the activation of EP1 receptor. The inhibitory effects of the compound of the present invention on this increase of intravesical pressure were measured for 60 minutes after the intraduodenal administration (2 ml/kg).

Data set [4] in a line: Stability measured on HPLC (Comparison Example 1). The note with it: for Stability (in words): comment on Table 4. In kind it is physicochemical. How it is done:
A Comparison of the Stability of 4-methyl-2-thiazolylsulfonyl chloride with that of the Compound Prepared in Examples 8 and 9
The solution prepared in Reference Example 1 was concentrated under reduced pressure to give 4-methyl-2-thiazolylsulfonyl chloride. The stability of this compound and the compounds prepared in Examples 8 and 9 was measured on HPLC. The conditions of HPLC were as follows.
Column: YMC-Pack ODS-AM-302(4.6 mm*150 mm)
Eluting solvent: MeCN/3 mM tetra-n-butylammonium phosphate=40/60

Structures are written as SMILES. Where a name gives a salt, the structure may show the parent alone.

By IC50 is commonly meant the concentration that inhibits the measured activity by half. As a reminder, the Ki is the equilibrium dissociation constant of an inhibitor or competing ligand from its target. The low end stands for higher affinity, the high end for lower affinity. Turning to `CC(C)CN(c1cc(Cl)ccc1OCc1ccc(C(=O)O)cc1)S(=O)(=O)c1ccco1` [Example 18 (125), reference compound], the IC50 in data set [1] amounted to 1340 nM. Moreover, the Ki in data set [2] came to 1.3 nM.
On the same counts, the results for `Cc1csc(S(=O)(=O)N(c2cc(C)c(C)cc2OCc2ccc(-c3noc(=O)[nH]3)cc2)C(C)C)n1` [Example 4 (14), N-[4,5-dimethyl-2-[4-(5-oxo-1,2,4-oxadiazol-3-yl)phenylmethyloxy]phenyl]-N-isopropyl-(4-methyl-2-thiazolyl)sulfonylamide] are 7.1 nM and 0.8 nM.
Consider `Cc1ccc(OCc2ccc(C(=O)O)cc2)c(N(CC(C)C)S(=O)(=O)c2ccco2)c1` [Example 18 (113), reference compound], for which the IC50 in data set [1] is 470 nM. This molecule displayed a Ki in data set [2] of 5.5 nM.
As to `Cc1cc(OCc2ccc(-c3nnn[nH]3)cc2Cl)c(N(C(C)C)S(=O)(=O)c2cccnc2)cc1C` [Example 3 (30), N-[4,5-dimethyl-2-[2-chloro-4-(5-tetrazolyl)phenylmethyloxy]phenyl]-N-isopropyl-3-pyridylsulfonylamide], the IC50 in data set [1] is 3.7 nM. Besides, the affinity in data set [2] corresponds to a Ki of 0.8 nM.
On the same counts, the results for `Cc1ccc(S(=O)(=O)N(CC(C)C)c2cc3c(cc2OCc2ccc(/C=C/C(=O)O)cc2)CCC3)o1` [Example 2 (32), 4-[6-[N-isobutyl-N-(5-methyl-2-furylsulfonyl)amino]indan-5-yloxymethyl]cinnamic acid] are 21 nM and 7.9 nM.
As for `CC(C)CN(c1ccc(Cl)cc1OCc1ccc(C(=O)O)cc1)S(=O)(=O)c1ccco1` [Example 18 (121), reference compound], the IC50 in data set [1] came to 260 nM. For the same molecule, affinity in data set [2] was put at a Ki of 1 nM.
In the case of `Cc1ccc(S(=O)(=O)N(CC(C)C)c2cc3c(cc2OCc2ccc(C(=O)O)cc2C)CCC3)o1` [Example 2 (33), 3-methyl-4-[6-[N-isobutyl-N-(5-methyl-2-furylsulfonyl)amino]indan-5-yloxymethyl]benzoic acid], the IC50 in data set [1] was 4.1 nM. The molecule further came in with a Ki in data set [2] of 6.6 nM. The “Inhibition (%) (40 minutes later)” value in data set [3] came out at 79 ± 11%.
On to `Cc1cc(OCc2ccc(C(=O)O)cc2C)c(N(CC(C)C)S(=O)(=O)c2ccccn2)cc1C` [Example 2 (87), 3-methyl-4-[2-[N-isobutyl-N-(2-pyridylsulfonyl)amino]-4,5-dimethylphenoxymethyl]benzoic acid], for which the IC50 in data set [1] came out at 7.3 nM. In data set [2], this molecule displayed a Ki of 1.4 nM.
As to `Cc1csc(S(=O)(=O)Cl)n1` [4-methyl-2-thiazolylsulfonyl chloride, 4-methyl-2-thiazolylsulfonylchloride], the “Residual Rate (%)” value in data set [4] (1 °C, 24 hour) was 102.0%; in data set [4] (1 °C, 48 hour), 96.3%; in data set [4] (1 °C, 72 hour) it was 98.6%; in data set [4] (20 °C, 24 hour), 71.4%; in data set [4] (20 °C, 48 hour), 20.6%; in data set [4] (20 °C, 66 hour), 2.0%. Further, the “Residual Rate (%)” value is given as 60.9% in data set [4] (40 °C, 16 hour) and 7.6% in data set [4] (40 °C, 24 hour). Further, the “Stability (in words)” value in data set [4] is on record as “stable at low temperature, but when subjected to room temperature or higher, it is hard to assure the stability”.
For `Cc1ccc(N(CC(C)C)S(=O)(=O)c2ccco2)c(OCc2ccc(C(=O)O)cc2)c1` [Example 18 (93), reference compound], in data set [1], the IC50 is 200 nM. The inhibition constant (Ki) in data set [2] is 0.8 nM.
The corresponding values for `Cc1cc(OCc2ccc(/C=C/C(=O)O)cc2C)c(N(CC(C)C)S(=O)(=O)c2cccnc2)cc1C` [Example 2 (94), 3-methyl-4-[2-[N-isobutyl-N-(3-pyridylsulfonyl)amino]-4,5-dimethylphenoxymethyl]cinnamic acid] are 9.2 nM and 3.9 nM.
The corresponding values for `Cc1ccc(S(=O)(=O)N(CC(C)C)c2cc(C)c(C)cc2OCc2ccc(C(=O)O)cc2)o1` [Example 2 (6), 4-[2-[N-isobutyl-N-(5-methyl-2-furylsulfonyl)amino]-4,5-dimethylphenoxymethyl]benzoic acid] are 7.2 nM and 0.32 nM.
Turning to `Cc1csc(S(=O)(=O)n2cc[n+](C)c2)n1` [Example 9, 1-(4-methylthiazol-2-ylsulfonyl)-3-methylimidazol-1-onium hydrogen chloride salt], the “Residual Rate (%)” value in data set [4] (40 °C, 24 hour) was determined as 99.6%. In addition, the “Stability (in words)” value in data set [4] is “stable even at high temperature”.
`Cc1csc(S(=O)(=O)On2nnc3ccccc32)n1` [Example 8, 1-(4-methylthiazol-2-ylsulfonyloxy)-1,2,3-benzotriazole]: the “Residual Rate (%)” value in data set [4] (40 °C, 24 hour) stood at 99.8%. Besides, the “Stability (in words)” value in data set [4] is on record as “stable even at high temperature”.
Turning to `Cc1csc(S(=O)(=O)N(c2cc(C)c(Cl)cc2OCc2ccc(-c3nnn[nH]3)cc2C)C(C)C)n1` [Example 3 (11), N-[4-chloro-5-methyl-2-[2-methyl-4-(5-tetrazolyl)phenylmethyloxy]phenyl]-N-isopropyl-(4-methyl-2-thiazolyl)sulfonylamide], in data set [1], the IC50 was 4.9 nM. The same molecule came in with a Ki in data set [2] of 2.3 nM.
Take `Cc1ccc(S(=O)(=O)N(CC(C)C)c2cc(C)c(C)cc2OCc2ccc(C(=O)O)cc2C)o1` [Example 2, 3-methyl-4-[2-[N-isobutyl-N-(5-methyl-2-furylsulfonyl)amino]-4,5-dimethylphenoxymethyl]benzoic acid]: the IC50 in data set [1] was 7.8 nM. Further, the affinity in data set [2] corresponds to a Ki of 4.2 nM. The “Inhibition (%) (40 minutes later)” value in data set [3] was found to be 68 ± 1%.
As to `Cc1csc(S(=O)(=O)N(CC(C)C)c2ccc(C(F)(F)F)cc2OCc2ccc(/C=C/C(=O)O)cc2)n1` [Example 2 (41), 4-[2-[N-isobutyl-N-(4-methyl-2-thiazolylsulfonyl)amino]-5-trifluoromethylphenoxymethyl]cinnamic acid], in data set [1], the 50% inhibitory concentration (IC50) was found to be 25 nM. Affinity in data set [2] was put at a Ki of 1.5 nM.
